The results in this text go back to ChEMBL document CHEMBL1154010, “Aziridine alkaloids as potential therapeutic agents” (Eur J Med Chem, 2009).

One series relates to LoVo. The series can be described thus: Cytotoxicity against human LoVo cells. The series is classed as functional, cell-based.
The test system of another series is KB. The experiment in a line: Cytotoxicity against human KB cells. The class given is functional, cell-based.
A short description of series [1]: Inhibition of sunflower S-adenosyl-L-methionine-C-24 methyltransferase. Further details: species or system Helianthus annuus.
For another series, the system named is Mycolicibacterium vaccae. The experiment in a line: Antimicrobial activity against Mycobacterium vaccae ATCC 15483. The class given is functional.
In series [2] the test system is Micrococcus luteus. The series can be described thus: Antimicrobial activity against Micrococcus luteus FDA16. The class given is functional.
Another series has as its system Bacillus anthracis. The series can be described thus: Antimicrobial activity against Bacillus anthracis. The series is classed as functional.
For series [3], the system named is Micrococcus luteus. The experiment in a line: Antimicrobial activity against Micrococcus luteus PCI 1001. The series is classed as functional.
For series [4], the system named is Bacillus subtilis. The series can be described thus: Antimicrobial activity against Bacillus subtilis PCI 219. The series is classed as functional.
Series [5] relates to Pseudomonas aeruginosa. The experiment in a line: Antimicrobial activity against Pseudomonas aeruginosa GN315. The class given is functional.
In a further series the test system is Corynebacterium bovis. The series can be described thus: Antimicrobial activity against Corynebacterium bovis 1810. The class given is functional.
The subject of series [6] is Escherichia coli. The experiment in a line: Antimicrobial activity against Escherichia coli NIHJ. The series is classed as functional.
In the next series the test system is Bacillus cereus. The experiment in a line: Antimicrobial activity against Bacillus cereus ATCC 10702. The class given is functional.
The test system of series [7] is Staphylococcus aureus. The series can be described thus: Antimicrobial activity against methicillin-resistant Staphylococcus aureus isolate 5. The series is classed as functional.
Series [8] concerns Micrococcus luteus. The series can be described thus: Antimicrobial activity against Micrococcus luteus IFO 3333. The class given is functional.
Series [9] relates to Mycolicibacterium smegmatis. The experiment in a line: Antimicrobial activity against capreomycin-resistant Mycobacterium smegmatis ATCC 607. The series is classed as functional.
In another series the test system is Klebsiella pneumoniae. The series can be described thus: Antimicrobial activity against Klebsiella pneumoniae PCI602. The class given is functional.
The test system of series [10] is Escherichia coli. The experiment in a line: Antimicrobial activity against Escherichia coli K-12. The class given is functional.
The test system of series [11] is Staphylococcus aureus. The series can be described thus: Antimicrobial activity against Staphylococcus aureus FDA209P. The series is classed as functional.
Series [12] has as its system Salmonella enterica subsp. enterica. The experiment in a line: Antimicrobial activity against Salmonella enteritidis 1891. The class given is functional, Salmonella enterica subsp. enterica serovar Enteritidis.
For series [13], the system named is Staphylococcus aureus. The experiment in a line: Antimicrobial activity against Staphylococcus aureus MS9610. The class given is functional.
Series [14] concerns Mycolicibacterium smegmatis. The experiment in a line: Antimicrobial activity against paromomycin-resistant Mycobacterium smegmatis ATCC 607. The class given is functional.
Series [15] deals with Mycolicibacterium smegmatis. The experiment in a line: Antimicrobial activity against Mycobacterium smegmatis ATCC 607. The class given is functional.
Series [16] deals with Mycolicibacterium smegmatis. The series can be described thus: Antimicrobial activity against streptomycin-resistant Mycobacterium smegmatis ATCC 607. The series is classed as functional.
Series [17] relates to Providencia rettgeri. The series can be described thus: Antimicrobial activity against Providencia rettgeri GN466. The class given is functional.
For series [18], the system named is Mycolicibacterium smegmatis. The series can be described thus: Antimicrobial activity against streptothricin-resistant Mycobacterium smegmatis ATCC 607. The series is classed as functional.
Series [19] relates to Escherichia coli. The experiment in a line: Antimicrobial activity against Escherichia coli BE1126. The class given is functional.
Series [20] has as its system Bacillus subtilis. The series can be described thus: Antimicrobial activity against Bacillus subtilis NRRL B-558. The class given is functional.
In a further series the test system is Proteus mirabilis. The experiment in a line: Antimicrobial activity against Proteus mirabilis IFM OM-9. The series is classed as functional.
Series [21] deals with Escherichia coli. The series can be described thus: Antimicrobial activity against Escherichia coli BEM11. The class given is functional.
In series [22] the test system is Salmonella enterica subsp. enterica. The series can be described thus: Antimicrobial activity against Salmonella typhi JS11746. The series is classed as functional, Salmonella enterica subsp. enterica serovar Typhi.
Series [23] has as its system Providencia rettgeri. The series can be described thus: Antimicrobial activity against Providencia rettgeri GN311. The series is classed as functional.
The subject of series [24] is Staphylococcus aureus. The experiment in a line: Antimicrobial activity against Staphylococcus aureus Smith. The class given is functional.
The test system of series [25] is Escherichia coli. The experiment in a line: Antimicrobial activity against Escherichia coli BE1186. The class given is functional.
Series [26] deals with Pseudomonas aeruginosa. The series can be described thus: Antimicrobial activity against Pseudomonas aeruginosa A3. The series is classed as functional.
Series [27] concerns Mycolicibacterium smegmatis. The experiment in a line: Antimicrobial activity against rifamycin-resistant Mycobacterium smegmatis ATCC 607. The class given is functional.
In another series the test system is Proteus vulgaris. The experiment in a line: Antimicrobial activity against Proteus vulgaris OX19. The class given is functional.
Another series concerns Shigella dysenteriae. The experiment in a line: Antimicrobial activity against Shigella dysenteriae JS1 1910. The class given is functional.
The next series deals with Shigella flexneri. The experiment in a line: Antimicrobial activity against Shigella flexneri 4bJS11811. The series is classed as functional.
Series [28] deals with Salmonella enterica subsp. enterica. The experiment in a line: Antimicrobial activity against Salmonella typhi T-63. The class given is functional, Salmonella enterica subsp. enterica serovar Typhi.
The subject of series [29] is Staphylococcus aureus. The experiment in a line: Antimicrobial activity against methicillin-resistant Staphylococcus aureus isolate 17. The class given is functional.
The subject of series [30] is Escherichia coli. The series can be described thus: Antimicrobial activity against Escherichia coli K-12 MLI629. The class given is functional.
A short description of series [31]: Toxicity in rat bearing M1 cells assessed as mortality at 40% LD50 per day. The series is classed as organism-based. Particulars: m1, 40 % LD50 per day, read-out: Activity.

Molecules are shown by their SMILES. Converted amounts (≈) assume the structure as drawn. Where only a bound is given, the exact number is not on record here.

The IC50 is the point on the concentration scale where inhibition reaches its midpoint. Read a low IC50 as higher potency. One may read the Ki as the equilibrium dissociation constant of an inhibitor or competing ligand from its target. Read a low Ki as a stronger hold on the target. Broadly, the MIC is the least concentration at which growth counts as inhibited.

`CC(=O)[C@]1(O)Cc2c(O)c3c(c(O)c2[C@@H](OC2C[C@H](N4CC4)[C@H](OS(C)(=O)=O)[C@H](C)O2)C1)C(=O)c1ccccc1C3=O` (some centres not stated) yielded an IC50 in the series with LoVo of 0.0027 µg/mL (≈ 0.00449 µM).
Consider `C/C(=C\c1csc(C)n1)[C@@H]1C[C@H]2[C@@H](CCC[C@H](C)[C@H](O)[C@@H](C)C(=O)C(C)(C)[C@@H](O)CC(=O)O1)N2CCO` (some centres not stated), for which the IC50 in the series on KB is 4.3 nM.
In series [1], `C[C@H](CCC1NC1(C)C)[C@H]1CC[C@@]2(C)C3=C(CC[C@]12C)[C@@]1(C)CC[C@H](O)C(C)(C)[C@@H]1CC3` (mixture of isomers) yielded a Ki of 3 nM.
Turning to `COc1c(O)cc2c(OC)c3c(c(O)c2c1O)C(=O)CC1CC(O)(C2CN2)CC(=O)C31O` (configuration not stated) [AZICEMICIN B], the MIC with Mycolicibacterium vaccae is 6.25 µg/mL (≈ 14 µM); in the series with Micrococcus luteus [2], 6.25 µg/mL (≈ 14 µM); against Bacillus anthracis, 100 µg/mL (≈ 225 µM); against Micrococcus luteus [3] it was 1.56 µg/mL (≈ 3.5 µM); against Bacillus subtilis [4], 100 µg/mL (≈ 225 µM); in the series on Pseudomonas aeruginosa [5], 100 µg/mL (≈ 225 µM). The MIC in the series with Corynebacterium bovis came to 6.25 µg/mL (≈ 14 µM); in the series with Escherichia coli [6], 25 µg/mL (≈ 56.1 µM); with Bacillus cereus, 100 µg/mL (≈ 225 µM); in the series on Staphylococcus aureus [7], 100 µg/mL (≈ 225 µM); in the series with Micrococcus luteus [8] it was 1.56 µg/mL (≈ 3.5 µM); in series [9], 12.5 µg/mL (≈ 28.1 µM). The MIC is 100 µg/mL (≈ 225 µM) against Klebsiella pneumoniae; 100 µg/mL (≈ 225 µM) in the series with Escherichia coli [10]; 100 µg/mL (≈ 225 µM) against Staphylococcus aureus [11]; greater than 50 µg/mL in [12]; 100 µg/mL (≈ 225 µM) against Staphylococcus aureus [13]; 6.25 µg/mL (≈ 14 µM) in [14]. Also, the MIC in [15] stood at 12.5 µg/mL (≈ 28.1 µM); in [16], 6.25 µg/mL (≈ 14 µM); in the series with Providencia rettgeri [17] it was 100 µg/mL (≈ 225 µM); in series [18] it was 25 µg/mL (≈ 56.1 µM); in the series with Escherichia coli [19] it was 100 µg/mL (≈ 225 µM); in the series on Bacillus subtilis [20] it was 100 µg/mL (≈ 225 µM). Also, the MIC (against Proteus mirabilis; against Escherichia coli [21]; in series [22]; against Providencia rettgeri [23]; against Staphylococcus aureus [24]; against Escherichia coli [25]) was 100 µg/mL (≈ 225 µM) throughout. Besides, the MIC is greater than 50 µg/mL with Pseudomonas aeruginosa [26]; 25 µg/mL (≈ 56.1 µM) in series [27]; 100 µg/mL (≈ 225 µM) with Proteus vulgaris; 25 µg/mL (≈ 56.1 µM) against Shigella dysenteriae; 100 µg/mL (≈ 225 µM) with Shigella flexneri; 100 µg/mL (≈ 225 µM) in series [28]. For the same compound, the MIC against Staphylococcus aureus [29] and with Escherichia coli [30] was 100 µg/mL (≈ 225 µM) each time.
Consider `CC1SCCN1P(=O)(N1CC1)N1CC1` (configuration not stated) [MARCOPHAN], for which the mortality in series [31] stood at 25%.
